Ki data for twelve compounds are collected here from paper PMC6804193, “Extending the Inhibition Profiles of Coumarin-Based Compounds Against Human Carbonic Anhydrases: Synthesis, Biological, and In Silico Evaluation” (Molecules, 2019).

Read-outs that look alike come from different tables or passages of the source.

What all share (experiment): stopped-flow CO2 hydrase assay
What all share (format): biochemical

One experiment concerns the target T1, hCA I (Homo sapiens, UniProt P00915).
T1 construct: gene CA1; recombinant, obtained in-house; cytosolic isoform
The source says:
stopped-flow CO2 hydrase assay on hCA I

In experiment [1] the target is T2, hCA XII (Homo sapiens, UniProt O43570).
T2 construct: gene CA12; recombinant, obtained in-house
T2 sequence (O43570 25-354): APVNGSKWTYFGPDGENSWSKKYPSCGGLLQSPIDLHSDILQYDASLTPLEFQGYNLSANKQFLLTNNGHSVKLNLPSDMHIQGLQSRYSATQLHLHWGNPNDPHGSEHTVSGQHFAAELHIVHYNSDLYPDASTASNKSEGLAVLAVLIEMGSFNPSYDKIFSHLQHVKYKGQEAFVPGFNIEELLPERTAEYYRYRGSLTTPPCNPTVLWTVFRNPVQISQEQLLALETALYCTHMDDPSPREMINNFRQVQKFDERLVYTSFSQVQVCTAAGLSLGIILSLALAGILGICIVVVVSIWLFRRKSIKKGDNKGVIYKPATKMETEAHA
The settings on record: read-out: KI^* (nM) / hCA II.

The next experiment deals with T3, hCA II (Homo sapiens, UniProt P00918).
T3 construct: gene CA2; recombinant, obtained in-house; cytosolic isoform
An excerpt:
stopped-flow CO2 hydrase assay on hCA II

In the next experiment the target is T4, hCA IX (Homo sapiens, UniProt Q16790).
T4 construct: gene CA9; recombinant, obtained in-house
An excerpt: stopped-flow CO2 hydrase assay on hCA IX

In experiment [2] the target is T2, hCA XII. The settings on record: read-out: KI^* (nM) / hCAXII. The source says:
stopped-flow CO2 hydrase assay on hCA XII

[3] abbreviates: CO2 […], […] Hepes pH […] Na2SO4, […] h preincubation at room temperature (prodrug inhibitors).

T1 sequence (P00915 2-261): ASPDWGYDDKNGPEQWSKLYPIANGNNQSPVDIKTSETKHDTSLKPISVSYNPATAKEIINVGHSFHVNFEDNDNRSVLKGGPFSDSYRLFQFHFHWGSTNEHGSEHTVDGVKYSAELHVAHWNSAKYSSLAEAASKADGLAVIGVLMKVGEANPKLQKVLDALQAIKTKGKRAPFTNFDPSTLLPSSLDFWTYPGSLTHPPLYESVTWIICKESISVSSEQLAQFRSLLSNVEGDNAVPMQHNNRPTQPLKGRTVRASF

Take `COc1ccc2occ(C3CC(=O)Oc4ccc(C(C)=O)c(O)c43)c(=O)c2c1` (racemic) [compound 8, 3-(6-Acetyl-5-hydroxy-2-oxochroman-4-yl)-6-methoxy-4H-chromen-4-one]: the Ki was over 10 µM on hCA I, over 10000 nM at hCA XII [1], over 10000 nM at hCA II and 175 nM at hCA IX.
Take `CCCc1cc2c(=O)c(-c3ccc4c(c3)OCCO4)coc2cc1OCc1cc(=O)oc2cc(C)cc(C)c12` [compound 9, coumarin 9]: the Ki at hCA I was over 10 µM; at hCA XII [1], over 10000 nM; on hCA II it was over 10000 nM; on hCA IX it was 171 nM.
As for `CC(=O)c1ccc2c(c1O)C(c1ccccc1OCc1ccccn1)CC(=O)O2` (racemic) [compound 7, 6-Acetyl-5-hydroxy-4-(2-(pyridin-2-ylmethoxy)phenyl)chroman-2-one], the Ki on hCA I was over 10 µM; at hCA XII [1], over 10000 nM; at hCA II, over 10000 nM; on hCA IX, 139 nM.
Take `O=C(NN1C(=O)/C(=C/C2=Cc3ccccc3OC2)SC1=S)c1cccnc1` [compound 12, 2H-chromene 12]: the Ki at hCA I was over 10 µM; on hCA XII [2], 432 nM; on hCA II it was over 10000 nM; at hCA IX, 241 nM.
In the same order, the values of `CCOC(=O)CC(C1=Cc2ccccc2OC1)c1oc(CO)cc(=O)c1O` (stereo not drawn) [compound 4, Ethyl 3-(2H-chromen-3-yl)-3-(3-hydroxy-6-(hydroxymethyl)-4-oxo-4H-pyran-2-yl) propanoate] are over 10 µM, 467 nM, over 10000 nM and 243 nM.
For `O=c1cc(-c2cc3ccc(O)cc3oc2=O)c2ccc(O)c(O)c2o1` [compound 3, 7,7’,8’-Trihydroxy-2H,2’H-[3,4’-bichromene]-2,2’-dione], the Ki on hCA I was over 10 µM; at hCA XII [1], over 10000 nM; at hCA II it was over 10000 nM; at hCA IX, 133 nM.
As to `Cc1c(O)c(CN(C)C)cc2c(-c3cc4ccccc4oc3=O)cc(=O)oc12` [compound 2, 6’-((Dimethylamino)methyl)-7’-hydroxy-8’-methyl-2H,2’H-[3,4’-bichromene]-2,2’-dione], the Ki on hCA I was over 10 µM; on hCA XII [1], over 10000 nM; on hCA II, over 10000 nM; at hCA IX, 85.6 nM.
Take `CC(=NO)c1c(OCc2ccc(Cl)cc2)ccc2c(C)cc(=O)oc12` [compound 1, 7-((4-Chlorobenzyl)oxy)-8-(1-(hydroxyimino)ethyl)-4-methyl-2H-chromen-2-one]: the Ki was over 10 µM at hCA I (setting [3]), 558 nM on hCA XII [2] (setting [3]), over 10000 nM at hCA II (setting [3]) and 49.3 nM on hCA IX (setting [3]).
Turning to `O=C(Nc1ccc2oc(=O)ccc2c1)[C@@H]1CSC2c3ccccc3C(=O)N21` (stereo partly drawn) [compound 11, coumarin 11], the Ki on hCA I was over 10 µM; at hCA XII [2], 591 nM; on hCA II, over 10000 nM; at hCA IX it was 9.4 nM.
For `Cc1cc(=O)oc2c(C)c(O)c(C(=O)/C=C/N(C)C)cc12` [compound 10, coumarin 10] the same measures were over 10 µM, 604 nM, over 10000 nM and 25.7 nM.
For `COc1cc(C2CC(=O)Oc3ccc(C(C)=O)c(O)c32)ccc1O` (racemic) [compound 6, 6-Acetyl-5-hydroxy-4-(4-hydroxy-3-methoxyphenyl)chroman-2-one], the Ki at hCA I was over 10 µM; on hCA XII [1], over 10000 nM; on hCA II it was over 10000 nM; on hCA IX, 189 nM.
For the compound `COc1ccc(C2CC(=O)Oc3ccc(C(C)=O)c(O)c32)cc1OCCc1ccc2c(c1)CCO2` (racemic) [compound 5, 6-Acetyl-4-(3-(2-(2,3-dihydrobenzofuran-5-yl)ethoxy)-4-methoxyphenyl)-5-hydroxychroman-2-one], the Ki on hCA I was over 10 µM; on hCA XII [1], over 10000 nM; on hCA II, over 10000 nM; at hCA IX, 172 nM.
